# Activity calls are given as the source filed them. How the calls were made is not given here.
# Test system: CCRIS mutagenicity, Ames/micronucleus/aberration tests
# Test: CCRIS mutagenicity studies
# [1] = Test System: AMES SALMONELLA TYPHIMURIUM, Strain/Indicator: TA98, Metabolic Activation: NONE, Method: PREINCUBATION
# [2] = Test System: AMES SALMONELLA TYPHIMURIUM, Strain/Indicator: TA100, Metabolic Activation: NONE, Method: PREINCUBATION
# [3] = Test System: AMES SALMONELLA TYPHIMURIUM, Strain/Indicator: TA1535, Metabolic Activation: NONE, Method: PREINCUBATION
# [4] = Test System: AMES SALMONELLA TYPHIMURIUM, Strain/Indicator: TA1537, Metabolic Activation: NONE, Method: PREINCUBATION
structure (smiles),measurement,setting,value
CC(=O)O[C@H]1[C@H]2O[C@H]2C2=CC(=O)[C@]3(C[C@]2(C)[C@H]1C)O[C@]3(C)C=O,mutagenic call,[1],active; positive
same,mutagenic call,"Test System: AMES SALMONELLA TYPHIMURIUM, Strain/Indicator: TA98, Metabolic Activation: RAT, LIVER, S-9, PHENOBARBITAL AND BETA-NAPHTHOFLAVONE, Method: PREINCUBATION",inactive; negative
same,mutagenic call,[2],inactive; negative
same,mutagenic call,"Test System: AMES SALMONELLA TYPHIMURIUM, Strain/Indicator: TA100, Metabolic Activation: RAT, LIVER, MICROSOMES, PHENOBARBITAL, Method: STANDARD PLATE",active; positive
same,mutagenic call,"Test System: AMES SALMONELLA TYPHIMURIUM, Strain/Indicator: TA100, Metabolic Activation: RAT, LIVER, S-9, PHENOBARBITAL AND BETA-NAPHTHOFLAVONE, Method: PREINCUBATION",inactive; negative
same,mutagenic call,"Test System: AMES SALMONELLA TYPHIMURIUM, Strain/Indicator: TA100, Metabolic Activation: RAT, LIVER, S-9, PHENOBARBITAL, Method: PREINCUBATION",inactive; negative
same,mutagenic call,[3],inactive; negative
same,mutagenic call,"Test System: AMES SALMONELLA TYPHIMURIUM, Strain/Indicator: TA1535, Metabolic Activation: RAT, LIVER, S-9, PHENOBARBITAL AND BETA-NAPHTHOFLAVONE, Method: PREINCUBATION",inactive; negative
same,mutagenic call,[4],inactive; negative
same,mutagenic call,"Test System: AMES SALMONELLA TYPHIMURIUM, Strain/Indicator: TA1537, Metabolic Activation: RAT, LIVER, S-9, PHENOBARBITAL AND BETA-NAPHTHOFLAVONE, Method: PREINCUBATION",inactive; negative
same,mutagenic call,"Test System: AMES SALMONELLA TYPHIMURIUM, Strain/Indicator: TA1538, Metabolic Activation: NONE, Method: PREINCUBATION",inactive; negative
same,mutagenic call,"Test System: AMES SALMONELLA TYPHIMURIUM, Strain/Indicator: TA1538, Metabolic Activation: RAT, LIVER, S-9, PHENOBARBITAL AND BETA-NAPHTHOFLAVONE, Method: PREINCUBATION",inactive; negative
CC(C)=CCC[C@](C)(O)[C@@H]1CC=C(C)CC1,mutagenic call,"End Point: AMES SALMONELLA TYPHIMURIUM, Test System: TA97A, Metabolic Activation: NONE, Method: STANDARD PLATE",inactive; negative
same,mutagenic call,"End Point: AMES SALMONELLA TYPHIMURIUM, Test System: TA97A, Metabolic Activation: RAT, LIVER, S-9, AROCLOR 1254, Method: STANDARD PLATE",inactive; negative
same,mutagenic call,"End Point: AMES SALMONELLA TYPHIMURIUM, Test System: TA98, Metabolic Activation: NONE, Method: STANDARD PLATE",inactive; negative
same,mutagenic call,"End Point: AMES SALMONELLA TYPHIMURIUM, Test System: TA98, Metabolic Activation: RAT, LIVER, S-9, AROCLOR 1254, Method: STANDARD PLATE",inactive; negative
same,mutagenic call,"End Point: AMES SALMONELLA TYPHIMURIUM, Test System: TA100, Metabolic Activation: NONE, Method: STANDARD PLATE",inactive; negative
same,mutagenic call,"End Point: AMES SALMONELLA TYPHIMURIUM, Test System: TA100, Metabolic Activation: RAT, LIVER, S-9, AROCLOR 1254, Method: STANDARD PLATE",inactive; negative
same,mutagenic call,"End Point: AMES SALMONELLA TYPHIMURIUM, Test System: TA1535, Metabolic Activation: NONE, Method: STANDARD PLATE",inactive; negative
same,mutagenic call,"End Point: AMES SALMONELLA TYPHIMURIUM, Test System: TA1535, Metabolic Activation: RAT, LIVER, S-9, AROCLOR 1254, Method: STANDARD PLATE",inactive; negative
Nc1cc([N+](=O)[O-])c(N)cc1Cl,mutagenic call,"Test System: AMES SALMONELLA TYPHIMURIUM, Strain/Indicator: TA98, Metabolic Activation: NONE, Method: STANDARD PLATE",active; positive
same,mutagenic call,"Test System: AMES SALMONELLA TYPHIMURIUM, Strain/Indicator: TA98, Metabolic Activation: RAT, LIVER, S-9, AROCLOR 1254, Method: STANDARD PLATE",active; positive
same,mutagenic call,"Test System: AMES SALMONELLA TYPHIMURIUM, Strain/Indicator: TA100, Metabolic Activation: NONE, Method: STANDARD PLATE",inactive; negative
same,mutagenic call,"Test System: AMES SALMONELLA TYPHIMURIUM, Strain/Indicator: TA100, Metabolic Activation: RAT, LIVER, S-9, AROCLOR 1254, Method: STANDARD PLATE",inactive; negative
same,mutagenic call,"Test System: AMES SALMONELLA TYPHIMURIUM, Strain/Indicator: TA1535, Metabolic Activation: NONE, Method: STANDARD PLATE",inactive; negative
same,mutagenic call,"Test System: AMES SALMONELLA TYPHIMURIUM, Strain/Indicator: TA1535, Metabolic Activation: RAT, LIVER, S-9, AROCLOR 1254, Method: STANDARD PLATE",inactive; negative
same,mutagenic call,"Test System: AMES SALMONELLA TYPHIMURIUM, Strain/Indicator: TA1537, Metabolic Activation: NONE, Method: STANDARD PLATE",inactive; negative
same,mutagenic call,"Test System: AMES SALMONELLA TYPHIMURIUM, Strain/Indicator: TA1537, Metabolic Activation: RAT, LIVER, S-9, AROCLOR 1254, Method: STANDARD PLATE",inactive; negative
same,mutagenic call,"Test System: AMES SALMONELLA TYPHIMURIUM, Strain/Indicator: TA1538, Metabolic Activation: NONE, Method: STANDARD PLATE",active; positive
same,mutagenic call,"Test System: AMES SALMONELLA TYPHIMURIUM, Strain/Indicator: TA1538, Metabolic Activation: RAT, LIVER, S-9, AROCLOR 1254, Method: STANDARD PLATE",active; positive
CCCCCCCCCc1ccc(OP(=O)(Oc2ccccc2)Oc2ccccc2)cc1,mutagenic call,"Test System: AMES SALMONELLA TYPHIMURIUM, Strain/Indicator: TA97, Metabolic Activation: HAMSTER, LIVER, S-9, AROCLOR 1254 (5, 10 OR 30%), Method: PREINCUBATION",inactive; negative
same,mutagenic call,"Test System: AMES SALMONELLA TYPHIMURIUM, Strain/Indicator: TA97, Metabolic Activation: RAT, LIVER, S-9, AROCLOR 1254 (10%), Method: PREINCUBATION",inactive; negative
same,mutagenic call,"Test System: AMES SALMONELLA TYPHIMURIUM, Strain/Indicator: TA97, Metabolic Activation: RAT, LIVER, S-9, AROCLOR 1254 (30%), Method: PREINCUBATION",inactive; negative
same,mutagenic call,"Test System: AMES SALMONELLA TYPHIMURIUM, Strain/Indicator: TA98, Metabolic Activation: HAMSTER, LIVER, S-9, AROCLOR 1254 (10 OR 30%), Method: PREINCUBATION",inactive; negative
same,mutagenic call,[1],inactive; negative
same,mutagenic call,"Test System: AMES SALMONELLA TYPHIMURIUM, Strain/Indicator: TA98, Metabolic Activation: RAT, LIVER, S-9, AROCLOR 1254 (10 OR 30%), Method: PREINCUBATION",inactive; negative
same,mutagenic call,"Test System: AMES SALMONELLA TYPHIMURIUM, Strain/Indicator: TA100, Metabolic Activation: HAMSTER, LIVER, S-9, AROCLOR 1254 (10 OR 30%), Method: PREINCUBATION",inactive; negative
same,mutagenic call,[2],inactive; negative
same,mutagenic call,"Test System: AMES SALMONELLA TYPHIMURIUM, Strain/Indicator: TA100, Metabolic Activation: RAT, LIVER, S-9, AROCLOR 1254 (10 OR 30%), Method: PREINCUBATION",inactive; negative
same,mutagenic call,"Test System: AMES SALMONELLA TYPHIMURIUM, Strain/Indicator: TA1535, Metabolic Activation: HAMSTER, LIVER, S-9, AROCLOR 1254 (10 OR 30%), Method: PREINCUBATION",inactive; negative
same,mutagenic call,[3],inactive; negative
same,mutagenic call,"Test System: AMES SALMONELLA TYPHIMURIUM, Strain/Indicator: TA1535, Metabolic Activation: RAT, LIVER, S-9, AROCLOR 1254 (10 OR 30%), Method: PREINCUBATION",inactive; negative
same,mutagenic call,"Test System: AMES SALMONELLA TYPHIMURIUM, Strain/Indicator: TA1537, Metabolic Activation: HAMSTER, LIVER, S-9, AROCLOR 1254 (5, 10 OR 30%), Method: PREINCUBATION",inactive; negative
same,mutagenic call,[4],inactive; negative
same,mutagenic call,"Test System: AMES SALMONELLA TYPHIMURIUM, Strain/Indicator: TA1537, Metabolic Activation: RAT, LIVER, S-9, AROCLOR 1254 (5, 10 OR 30%), Method: PREINCUBATION",inactive; negative
Cc1c2ccccc2c(C)c2c3c(ccc12)C(=O)C(=O)C=C3,mutagenic call,"Test System: AMES SALMONELLA TYPHIMURIUM, Strain/Indicator: TA97A, Metabolic Activation: NONE, Method: PREINCUBATION",inactive; negative
same,mutagenic call,[1],inactive; negative
same,mutagenic call,[2],inactive; negative
same,mutagenic call,"Test System: AMES SALMONELLA TYPHIMURIUM, Strain/Indicator: TA102, Metabolic Activation: NONE, Method: PREINCUBATION",inactive; negative
same,mutagenic call,"Test System: AMES SALMONELLA TYPHIMURIUM, Strain/Indicator: TA104, Metabolic Activation: NONE, Method: PREINCUBATION",inactive; negative
CN(C)/C=N/c1nnc(/C=C/c2ccc([N+](=O)[O-])o2)o1,mutagenic call,"Test System: AMES SALMONELLA TYPHIMURIUM, Strain/Indicator: TA100, Metabolic Activation: RAT, LIVER, S-9, KC500 OR PHENOBARBITAL, Method: LIQUID SUSPENSION",active; positive

# From PubChem BioAssay AID1259407 (Chemical Carcinogenesis Research Information System (CCRIS), 2018)
